Results published in ChEMBL document CHEMBL1201862, “PubChem BioAssay data set” (2004).
The source made the active and inactive calls.

Assays:
H9c2 = assay: cells; type: functional, cell-based; conditions: Rattus norvegicus, H9c2, Myocardium;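 also: confirmatory concentration-response retest of ultra-high-throughput screening hits for modulation of myocardial damage; cell death induced by hydrogen peroxide oxidative stress; compound pretreatment for 60 min then peroxide exposure for 2 h; potency is for protecting the cells against peroxide damage rather than for killing them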
[1] = luciferase reporter signal suppression in cells – H4 neuroglioma cells, luminescence, dose response (AID 1990); type: functional, cell-based
[2] = Luminescence Cell-Based Dose Response HTS to Identify Inhibitors of 5'UTR Stem-Loop Driven Prion Protein mRNA Translation in H4 Neuroglioblastoma Cells. [Related pubchem assays: 1827 (Project Summary), 1813 (Primary HTS)]; type: functional
[3] = alpha-synuclein stem-loop luciferase translation blockers – H4 neuroglioma cells, luminescence, confirmation (AID 1988); type: functional, cell-based
[4] = NIH-3T3 fibroblast cytotoxicity, dose response, cytotoxicity control, cell-based, fluorescence, Alamar Blue, secondary assay (AID 2327); type: functional;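 also: NIH-3T3 mouse fibroblasts cultured with fluconazole at 8 µg/mL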
[5] = fluconazole-exposed Candida albicans growth modulators – fluorescence, retest, confirmation (AID 2467); type: functional, cell-based
cells [6] = type: functional
[7] = target: T1, Ubiquitin-conjugating enzyme E2 N (Homo sapiens, UniProt P61088); type: functional;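 also: Dose-response confirmation in a TR-FRET assay detecting UBC13-driven polyubiquitin chain formation, inhibition measured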
T1 sequence (P61088 whole entry): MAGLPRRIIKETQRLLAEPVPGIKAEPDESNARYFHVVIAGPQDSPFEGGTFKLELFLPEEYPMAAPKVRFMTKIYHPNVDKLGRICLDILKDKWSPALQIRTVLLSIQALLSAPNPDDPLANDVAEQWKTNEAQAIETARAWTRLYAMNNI

Paired box protein Pax-8 = Paired box protein Pax-8 (Homo sapiens, UniProt Q06710); assay: PAX8 transcriptional activity inhibition in RMG-I – RMG-I cells, luciferase, cherry-pick, dose response (AID 687027); type: functional, cell-based;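 also: luciferase reporter driven by Pax8 target thyroperoxidase promoter measured by SteadyGlo luminescence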
Paired box protein Pax-8, sequence (Q06710 whole entry): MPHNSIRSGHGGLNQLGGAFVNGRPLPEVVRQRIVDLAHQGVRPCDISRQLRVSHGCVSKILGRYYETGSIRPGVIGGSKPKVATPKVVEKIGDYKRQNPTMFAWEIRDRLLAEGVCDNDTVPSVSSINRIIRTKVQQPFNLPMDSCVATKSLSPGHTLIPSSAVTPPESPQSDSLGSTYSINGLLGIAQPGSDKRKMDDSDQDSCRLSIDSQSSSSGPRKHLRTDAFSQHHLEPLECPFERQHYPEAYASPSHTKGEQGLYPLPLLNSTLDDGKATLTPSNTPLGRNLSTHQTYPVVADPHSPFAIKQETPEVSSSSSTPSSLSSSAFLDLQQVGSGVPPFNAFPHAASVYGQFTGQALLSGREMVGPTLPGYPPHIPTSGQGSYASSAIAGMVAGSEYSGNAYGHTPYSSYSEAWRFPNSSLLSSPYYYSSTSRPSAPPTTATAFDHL

P388/ADR = assay: cells; type: functional; conditions: Mus musculus
SN12K1 = assay: cells; type: functional; conditions: Homo sapiens
P388 = assay: cells; type: functional; conditions: Mus musculus
Vero = assay: cells; type: functional; conditions: Chlorocebus sabaeus
[8] = system: Streptococcus sp. 'group A'; assay: Streptococcus pyogenes SK(-)GAS viability under kanamycin – luminescence, BacTiterGlo, confirmation, counter-screen for streptokinase expression inhibitor project, dose response (AID 1900); type: functional, organism-based
cells [9] = type: functional, cell-based
Streptokinase A = target: T2, Streptokinase A (Streptococcus pyogenes serotype M1, UniProt P10520); assay: viability-normalized secreted streptokinase activity reduction – plasminogen activation absorbance, OD405, dose response (AID 1914); type: functional, Streptococcus pyogenes M1 GAS;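 also: secreted streptokinase activity via plasminogen activation per viability signal from cell pellet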
T2 sequence (P10520 whole entry): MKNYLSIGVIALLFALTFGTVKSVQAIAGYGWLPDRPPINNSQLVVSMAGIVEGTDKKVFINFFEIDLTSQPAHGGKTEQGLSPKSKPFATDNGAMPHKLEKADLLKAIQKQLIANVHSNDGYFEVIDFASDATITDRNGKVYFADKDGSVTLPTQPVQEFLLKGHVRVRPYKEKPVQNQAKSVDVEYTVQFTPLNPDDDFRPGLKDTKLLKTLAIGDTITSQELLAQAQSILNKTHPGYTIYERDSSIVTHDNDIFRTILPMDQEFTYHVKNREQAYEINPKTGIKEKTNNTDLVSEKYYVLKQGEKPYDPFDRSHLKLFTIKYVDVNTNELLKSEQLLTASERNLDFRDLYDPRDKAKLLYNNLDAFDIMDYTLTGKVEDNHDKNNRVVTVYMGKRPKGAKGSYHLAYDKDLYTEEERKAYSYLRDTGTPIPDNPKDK

cells [10] = type: functional, cell-based; remark: listed apart in the source
Streptococcus = assay: GAS UMAA2166 growth inhibition – luminescence, BacTiterGlo, counter-screen for streptokinase expression inhibitor project, dose response (AID 1915); type: functional, organism-based;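 also: potency for reduction of bacterial viability or growth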
INS1 = assay: INS-1E survival protection against cytokine death – cell-based, luminescence, retest, dose response (AID 449756); type: functional; conditions: Rattus norvegicus;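 also: cell death triggered by IL-1 beta plus TNF-alpha plus IFN-gamma mixture; protective hits raise ATP signal compared with cytokine alone wells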

Cn1c(=O)[nH]c(=O)c2c1nc(Br)n2CC(O)COc1ccc(Cl)cc1 (stereo not given)
IC50 (H9c2): > 79 µM (inactive)

COc1ccc(C(=O)Nc2ccc[n+](-c3nc4ccccc4nc3[N-]S(=O)(=O)c3ccccc3)c2)cc1
EC50 [1]: > 120 µM (not active)
EC50 [2]: > 120 µM (not active)
EC50 [3]: > 120 µM (not active)

COc1ccc(C(=O)Nc2ccccc2N2CCOCC2)cc1[N+](=O)[O-]
EC50 [1]: > 120 µM (not active)
EC50 [2]: > 120 µM (not active)
EC50 [3]: > 120 µM (not active)

CCc1ccccc1N=C(S)N1CCCCCC1
EC50 [4]: 42.1 µM (active)
EC50 [5]: > 38 µM (not active)

O=C(c1cc2ccccc2o1)N1CCN(Cc2ccccc2)CC1
IC50 (cells [6]): 18.8 µM (active)

Oc1nnc(Cc2ccccn2)c2ccccc12
IC50 (H9c2): 39.4 µM (inactive)

CCN(Cc1ccccc1)S(=O)(=O)c1ccc(C(=O)N(CCCN(C)C)c2nc3cc4c(cc3s2)OCO4)cc1
IC50 [7]: > 20 µM (inactive)

O=c1cc(CSc2ccc([N+](=O)[O-])cc2)nc2sccn12
IC50 (H9c2): > 79 µM (inactive)

CCOC(=O)COc1ccc2c(=O)c(-c3ccccc3OC)coc2c1
IC50 (cells [6]): 1.45 µM (active)

O=C(O)c1ccc(NS(=O)(=O)/C=C/c2ccccc2)cc1O
IC50 (cells [6]): 16.6 µM (active)

CCCCn1c(=O)[nH]c(=O)c2c1nc(-c1ccc(OC(F)F)c(OC)c1)n2C
EC50 [1]: 24.6 µM (active)
EC50 [2]: > 120 µM (not active)
EC50 [3]: > 120 µM (not active)

CCN1C(=O)/C(=C/c2nc(O)c3ccccc3n2)c2ccccc21
IC50 (H9c2): > 79 µM (inactive)

CCCCn1c(N2CCCC2)nc2c1c(=O)[nH]c(=O)n2C
EC50 [1]: > 120 µM (not active)
EC50 [2]: > 120 µM (not active)
EC50 [3]: > 120 µM (not active)

CCOC(=O)N1CCC(NC(=O)c2cc3c(-c4ccccc4F)nn(C)c3s2)CC1
IC50 (H9c2): 10.6 µM (active)

CCOc1ncccc1C(=O)Nc1cccc(-c2nc3cccnc3s2)c1
IC50 (H9c2): > 79 µM (inactive)

Cc1cccnc1NC(=O)c1c(O)c2ccccc2n(C)c1=O
IC50 (cells [6]): 25 µM (active)

O=C1c2ccccc2NC(c2cnc3ccccc3n2)N1O (stereo not given)
EC50 [4]: > 160 µM (inactive)
EC50 [5]: > 38 µM (not active)

CC(=O)c1c(C)oc2ccc(N(C(C)=O)S(=O)(=O)c3ccc(Cl)c([N+](=O)[O-])c3)cc12
EC50 [1]: 7.87 µM (active)
EC50 [2]: 8.95 µM (active)
EC50 [3]: 7.59 µM (active)

CCNc1nc(SCc2ccccc2)nc(N2CCOCC2)n1
EC50 [1]: 13.1 µM (active)
EC50 [2]: > 120 µM (not active)
EC50 [3]: 16.8 µM (active)

O=S(=O)(Nc1cccc(-c2cn3cccnc3n2)c1)c1ccc(Cl)cc1
AC50 (Paired box protein Pax-8): 43.5 µM (active)

COc1ccc(NCc2nnc(O)c3ccccc23)cc1
IC50 (H9c2): > 79 µM (inactive)

O=C(CN1C(=O)COc2ccccc21)NCCCN1CCc2ccccc2C1
EC50 [4]: > 150 µM (inactive)
EC50 [5]: > 38 µM (not active)

COc1cc2[nH]c(Cl)c([N+](=O)[O-])c2cc1OC
IC50 (cells [6]): 23.1 µM (active)

O=C(Nc1ccccn1)c1cc(-c2cccnc2)nc2ccc(Br)cc12
EC50 [1]: 10.9 µM (active)
EC50 [2]: 13.5 µM (active)
EC50 [3]: 8.63 µM (active)

CN(CCc1cn[nH]c1)Cc1nc(C(c2ccccc2)c2ccccc2)no1
AC50 (Paired box protein Pax-8): 65 µM (active)

CC(=O)NC(c1cccs1)c1cc(Cl)c2ccccc2c1O (stereo not given)
IC50 [7]: > 20 µM (inactive)

CSc1nc2ccc(S(=O)(=O)Nc3c(C)n(C)n(-c4ccccc4)c3=O)cc2s1
IC50 (H9c2): > 79 µM (inactive)

[N-]=[N+]=CC(=O)CCC(N)C(=O)O (stereo not given)
GI50 (P388/ADR): 0.112 µM (active)
GI50 (SN12K1): 0.871 µM (active)
GI50 (P388): 0.0991 µM (active)

CC1=CC(O)C(O)C2(C)C1CC1OC(=O)C(O)C3C(C)C(O)C4(O)OCC13C42 (stereo not given)
GI50 (P388/ADR): > 625 µM (inactive)
GI50 (SN12K1): 3.63 µM (inactive)
GI50 (P388): > 29 µM (inactive)

O=c1cc(-c2cccnc2)oc2c1ccc1ccccc12
IC50 (H9c2): > 79 µM (inactive)

CN(C(=O)CCN1C(=O)/C(=C/c2ccc(F)cc2)SC1=S)C1CCS(=O)(=O)C1 (stereo not given)
CC50 (Vero): > 25 µM (active)

CCNC(=O)C(C)C1CCC2(C)C=CC(=O)C(C)=C2C1O (stereo not given)
GI50 (P388/ADR): > 100 µM (inactive)
GI50 (SN12K1): > 100 µM (inactive)
GI50 (P388): > 100 µM (inactive)

O=C(N/N=C/c1cccs1)c1cncc(Br)c1
IC50 (cells [6]): 10.7 µM (active)

O=NN(CCCl)C(=O)Nc1ccc(Cl)c(Cl)c1
GI50 (P388/ADR): 65 µM (inactive)
GI50 (SN12K1): 84.9 µM (inactive)
GI50 (P388): 49.1 µM (inactive)

O=C(NCCCCCCNC(=O)n1cc(F)c(=O)[nH]c1=O)NCCCOCCOCCOCCOCCOCCOCCOCCOCCOCCOCCOCCOCCOCCOCCOCCOCCOCCOCCOCCOCCOCCCNC(=O)C(O)C(O)C(O)C(O)CO (stereo not given)
GI50 (P388/ADR): 0.492 µM (active)
GI50 (SN12K1): 6.15 µM (inactive)
GI50 (P388): 0.879 µM (active)

C/C(=N\NC(=[Se])N(C)C)c1ccccn1
GI50 (P388/ADR): < 0.01 µM (active)
GI50 (SN12K1): < 0.01 µM (active)
GI50 (P388): < 0.01 µM (active)

O=C1OC2CC=CC1C2 (stereo not given)
GI50 (P388/ADR): > 100 µM (inactive)
GI50 (SN12K1): > 100 µM (inactive)
GI50 (P388): > 100 µM (inactive)

CC(C)[C@](O)(C(=O)OCC1CC[N+]2([O-])CC[C@@H](O)C12)[C@H](C)O (stereo not given in full)
GI50 (P388/ADR): > 375 µM (inactive)
GI50 (SN12K1): > 375 µM (inactive)
GI50 (P388): > 364 µM (inactive)

COc1ccc(/C=N/NC(=O)c2cccnc2)cc1CN1CCc2ccccc2C1
IC50 (H9c2): 10.6 µM (active)

CC[C@]12C=CCN3CC[C@@]4(c5ccc(OC)cc5N(C)[C@H]4[C@@](O)(C(=O)OC)[C@@H]1OC(C)=O)[C@@H]32
GI50 (P388/ADR): 95.3 µM (inactive)
GI50 (SN12K1): 193 µM (inactive)
GI50 (P388): 14.5 µM (inactive)

CCOC(=O)CN1CCS/C1=N/C#N
GI50 (P388/ADR): > 100 µM (inactive)
GI50 (SN12K1): > 100 µM (inactive)
GI50 (P388): > 100 µM (inactive)

COc1cc(C(=O)N/N=C/C2CC=CCC2)cc(OC)c1OC (stereo not given)
EC50 [1]: > 120 µM (not active)
EC50 [2]: > 120 µM (not active)
EC50 [3]: > 120 µM (not active)

COc1cccc2c1[C@H]1CO[C@H]3C4C[C@H](C(=O)O)C([C@@H](C2)N13)N4C (stereo not given in full)
GI50 (P388/ADR): 0.0906 µM (active)
GI50 (SN12K1): 0.483 µM (active)
GI50 (P388): 1.08 µM (active)

C/C(=N\NC(=O)CSCc1ccc([N+](=O)[O-])cc1)c1cccc(Br)c1
IC50 [7]: > 20 µM (inactive)

Cc1cc(C)nc(N/N=C/c2cc(Br)ccc2O)n1
EC50 [8]: 8.51 µM (active)
EC50 (cells [9]): 7.66 µM (active)
EC50 (Streptokinase A): > 150 µM (not active)
EC50 (cells [10]): > 350 µM (not active)
EC50 (Streptococcus): 146 µM (active)
AC50 (INS1): 3.35 µM (active)

CO[C@H]1[C@@H](O)[C@@H](O)O[C@@H](O[C@H]2CC[C@@]3(C)[C@H](CC[C@@H]4[C@@H]3[C@H](O)C[C@]3(C)[C@@H](C5=CC(=O)OC5)CC[C@]43O)C2)[C@@H]1O
AC50 (Paired box protein Pax-8): 0.809 µM (active)

Nc1ncnc2c1nnn2C1OC(CO)C(O)C1O (stereo not given)
GI50 (P388/ADR): 8.43 µM (inactive)
GI50 (SN12K1): 1.71 µM (inactive)
GI50 (P388): 3.42 µM (inactive)
